Data from paper PMC6627698, “Redesigning Arenicin-1, an Antimicrobial Peptide from the Marine Polychaeta Arenicola marina, by Strand Rearrangement or Branching, Substitution of Specific Residues, and Backbone Linearization or Cyclization” (Marine Drugs, 2019).
Residues, ends and D or L forms follow the SMILES beside them.

Experiments:
S. aureus ATCC 25923 = type: cell-based, Staphylococcus aureus; conditions: ATCC 25923, 18 h
Excerpt: (§1) E. coli ML35p, Listeria monocytogenes EGD, methicillin-resistant Staphylococcus aureus (MRSA) ATCC 33591 were kindly provided by Prof. Robert Lehrer (University of California, Los Angeles, CA, USA); E. coli ATCC 25922, E. coli M15, Pseudomonas aeruginosa ATCC 27853, S. aureus ATCC 25923 were provided by Dr. Elena Ermolenko (Institute of Experimental Medicine, St-Petersburg, Russia); drug-resistant clinical isolates were provided by Prof. Gennadiy Afinogenov (Saint Petersburg State University, Russia); S. aureus 710A has been described previously. The following clinical isolates of bacteria were used: P.s aeruginosa resistant to aztreonam, ceftazidime, cefotaxime (obtained from the urine of a patient with cystitis), Acinetobacter baumannii resistant to meropenem (from an infected wound); Staphylococcus intermedius (from an infected wound caused by a dog bite) resistant to ciprofloxacin, cefuroxime, clindamycin, erythromycin, rifampin, gentamicin, benzylpenicillin, oxacillin.
(§2) This assay was applied to determine the MIC, according to the guidelines of the Clinical and Laboratory Standards Institute, using Mueller Hinton (MH) Broth. We prepared 2x stocks of peptides and serially diluted them in sterile PBS instead of Mueller Hinton Broth, so that the treatment of the bacteria with the peptides was carried out in a medium containing 50% of MH and 50% of PBS, as described. The overnight cultures of each strain were transferred to fresh MH media and further incubated to obtain a mid-logarithmic-growth-phase culture of bacteria. The absorbance of each bacterial suspension was measured at 620 nm, and bacteria were then diluted to approximately 2 × 10^5 CFU/mL. Then, 50 µL of the suspensions were mixed with 50 µL of the peptide dilutions in the wells of a microtiter plate (pre-treated for 1 h at 37 °C with 0.2% bovine serum albumin (BSA) in water, sterilized by filtration, to diminish the non-specific binding of the peptides to the plastic surfaces).

MRSA ATCC 33591 = type: cell-based, Staphylococcus aureus; conditions: ATCC 33591, 18 h
Excerpt: as §1, §2

S. aureus c.i. = type: cell-based, Staphylococcus aureus; conditions: 18 h
Excerpt: as §1, §2

[1] = test system: human erythroleukemia K-562 cells; type: cell-based; conditions: 24 h
Procedure: The standard MTT ((3-(4,5-Dimethylthiazol-2-yl)-2,5-diphenyltetrazolium bromide) test was used for the examination of the cytotoxic activity of AMPs towards human erithroleukemia cells K-562. The cells were purchased from Biolot (Saint Petersburg, Russia) and were grown in RPMI 1640 medium (Biolot, Saint Petersburg, Russia) supplemented with glutamine and 10% FCS. Before the experiment, the culturing medium was replaced with serum-free RPMI 1640. Serial dilutions of the peptides in RPMI were plated in sterile 96-well microplates, and the target cells were dispensed to the microplates (10^5 cells/well in RPMI 1640). The plates were incubated for 24 h at 37 °C under 5% CO2. Cell-free media and cells incubated without peptides served as controls. Four hours before the incubation ended, MTT in PBS (5 mg/mL) was added to each well. After the incubation was stopped by adding isopropanol/ 0.04 M HCl, the optical density was measured at 540 nm, subtracting the background absorbance at 690 nm. Toxicity was determined by nonlinear regression analysis of the corresponding dose–response curves using the Sigma Plot 11 program to calculate the IC50 values (the concentration of the test substance that reduced the OD540 capacity by 50%).

E. coli ATCC 25922 = type: cell-based, Escherichia coli; conditions: ATCC 25922, 18 h
Excerpt: as §1, §2

E. coli M15 = type: cell-based, Escherichia coli; conditions: M15, 18 h
Excerpt: as §1, §2

[2] = test system: set of Gram-negative and Gram-positive bacteria, including drug-resistant clinical isolates; type: cell-based; conditions: 12 strains; median MICs used; MIC > 16 µM taken as 32 µM
Procedure: To obtain a global assessment of the effect on antimicrobial activity, the geometric mean of the MIC (G-MIC) was calculated, and from this, the overall improvement or impoverishment with respect to arenicin-1. In general, inverting the symmetry or decreasing the charge had detrimental effects.
The overall activity against a set of tested bacterial strains was determined by way of the commonly used geometric mean of measured MIC values. […] At the same time, the geometric mean can still discriminate antimicrobial agents showing minor variations in activity; in other words, it has a better “resolution” than the median MIC (MIC50). Some mathematical basics for choosing the geometric mean for antimicrobial activity comparison are further discussed in the Supplementary Chapter S3.

[3] = test system: Staphylococcus intermidius; type: cell-based, Staphylococcus intermedius; conditions: 18 h
Excerpt: as §1, §2

[4] = test system: Staphylococcus aureus 710A; type: cell-based; conditions: 18 h
Excerpt: as §1, §2

[5] = test system: Listeria monocytogenes EGD; type: cell-based; conditions: 18 h
Excerpt: as §1, §2

Escherichia coli ML35p = type: cell-based; conditions: broth microdilution, 50% Mueller Hinton broth / 50% PBS, 18 h at 37 °C, median of 3–5 experiments in triplicates
Excerpt: as §1, §2

[6] = test system: Pseudomonas aeruginosa ATCC 27853; type: cell-based; conditions: ATCC 27853, 18 h
Excerpt: as §1, §2

P. aeruginosa c.i. = type: cell-based, Pseudomonas aeruginosa; conditions: 18 h
Excerpt: as §1, §2

[7] = test system: Acinetobacter baumanii c.i.; type: cell-based, Acinetobacter baumannii; conditions: 18 h
Excerpt: as §1, §2

| Compound | Minimal Inhibitory Concentrations (MIC) (S. aureus ATCC 25923) [µM] | Minimal Inhibitory Concentrations (MIC) (MRSA ATCC 33591) [µM] | Minimal Inhibitory Concentrations (MIC) (S. aureus c.i.) [µM] | IC50 [1] [µM] | Minimal Inhibitory Concentrations (MIC) (E. coli ATCC 25922) [µM] | Minimal Inhibitory Concentrations (MIC) (E. coli M15) [µM] | G-MIC (geometric mean of all determined MICs) [2] [µM] | Minimal Inhibitory Concentrations (MIC) [3] [µM] | Minimal Inhibitory Concentrations (MIC) [4] [µM] | Minimal Inhibitory Concentrations (MIC) [5] [µM] | Minimal Inhibitory Concentrations (MIC) (Escherichia coli ML35p) [µM] | Minimal Inhibitory Concentrations (MIC) [6] [µM] | Minimal Inhibitory Concentrations (MIC) (P. aeruginosa c.i.) [µM] | Minimal Inhibitory Concentrations (MIC) [7] [µM] |
| --- | --- | --- | --- | --- | --- | --- | --- | --- | --- | --- | --- | --- | --- | --- |
| CC(C)C[C@@H]1NC(=O)[C@H](C(C)C)NC(=O)CNC(=O)[C@H](CCCNC(=N)N)NC(=O)[C@H](C(C)C)NC(=O)[C@H](CCCNC(=N)N)NC(=O)[C@H](C(C)C)NC(=O)[C@H](Cc2ccc(O)cc2)NC(=O)[C@H](C)NC(=O)[C@H](Cc2ccc(O)cc2)NC(=O)[C@H](C(C)C)NC(=O)[C@@H](NC(=O)[C@H](Cc2c[nH]c3ccccc23)NC(=O)[C@@H](N)CCCNC(=N)N)CSSC[C@@H](C(=O)N[C@@H](Cc2c[nH]c3ccccc23)C(=O)O)NC(=O)[C@H](CCCNC(=N)N)NC(=O)[C@H](CCCNC(=N)N)NC(=O)[C@H](Cc2ccc(O)cc2)NC(=O)[C@H](CCCNC(=N)N)NC(=O)[C@H](C(C)C)NC1=O [AR, Arenicin-1] (HELM PEPTIDE1{R.W.C.V.Y.A.Y.V.R.V.R.G.V.L.V.R.Y.R.R.C.W}$PEPTIDE1,PEPTIDE1,3:R3-20:R3$$$V2.0) | 2 | 4 | 4 | 17.9 | 2 | 2 | 2.7 | 8 | 2 | 1 to 2 | 1 to 2 | 2 | 4 | 4 |
| CC(C)C[C@@H]1NC(=O)[C@H](C(C)C)NC(=O)CNC(=O)[C@H](CCCNC(=N)N)NC(=O)[C@H](C(C)C)NC(=O)[C@H](CCCNC(=N)N)NC(=O)[C@H](C(C)C)NC(=O)[C@H](Cc2ccc(O)cc2)NC(=O)[C@H](C)NC(=O)[C@H](Cc2ccc(O)cc2)NC(=O)[C@H](C(C)C)NC(=O)[C@@H](NC(=O)[C@H](Cc2ccccc2)NC(=O)[C@@H](N)CCCNC(=N)N)CSSC[C@@H](C(=O)N[C@@H](Cc2ccccc2)C(=O)O)NC(=O)[C@H](CCCNC(=N)N)NC(=O)[C@H](CCCNC(=N)N)NC(=O)[C@H](Cc2ccc(O)cc2)NC(=O)[C@H](CCCNC(=N)N)NC(=O)[C@H](C(C)C)NC1=O [AR-F] (HELM PEPTIDE1{R.F.C.V.Y.A.Y.V.R.V.R.G.V.L.V.R.Y.R.R.C.F}$PEPTIDE1,PEPTIDE1,3:R3-20:R3$$$V2.0; N-terminus and C-terminus assumed) | 2 | 2 | 4 | 9.3 | 1 | 1 | 1.8 | 4 | 2 | 2 | 1 | 1 | 2 | 2 |
